Laboratory results taken from patent publication US11076594B2, “Pyrazolone compound or salt thereof, preparation method therefor, herbicide composition and use thereof” (QINGDAO KINGAGROOT CHEMICAL COMPOUNDS CO., LTD., priority 2015, dated 2021).

Key:
Assay type in all cases: in vivo
Settings in all cases: post-emergence spray at 4-5 leaf stage, 250 g/ha active ingredient with 450 kg/ha water, rated after 3 weeks in greenhouse
[1] = system: corn; experiment: post-emergence stage experiment, crop (Table 1)
Protocol: (§1) The activity level standard of harmful plant destruction (i.e. growth control rate) is as follows: The above described growth control rate is fresh weight control rate. Monocotyledonous and dicotyledonous weed seeds and main crop seeds (i.e. wheat, corn, rice, soybean, cotton, oilseed, millet and sorghum.) were put into a plastic pot loaded with soil. Then covered with 0.5-2 cm soil, the seeds were allowed to grow in good greenhouse environment. The test plants were treated at 4-5 leaf stage 2-3 weeks after sowing. The test compounds of the invention were dissolved with acetone respectively, then added with 80 tween and diluted by certain amount of water to certain concentration. The solution was sprayed to the plants with a sprayer. Then the plants were cultured for 3 weeks in the greenhouse.

[2] = system: wheat; experiment: post-emergence stage experiment, crop (Table 1)
Protocol: as §1

[3] = system: bidens bipinnata; experiment: weed control effect in post-emergence stage (Table 1); set-up: key: Level 10: completely dead; Level 9: above 95% growth control rate; Level 8: above 90% growth control rate; Level 7: above 80% growth control rate; Level 6: above 70% growth control rate; Level 5: above 60% growth control rate; Level 4: above 50% growth control rate; Level 3: above 20% growth control rate; Level 2: 5%-20% growth control rate; Level 1: below 5% growth control rate
Protocol: as §1

[4] = system: echinochloa; experiment: as above; set-up: key: Level 10: completely dead; Level 9: above 95% growth control rate; Level 8: above 90% growth control rate; Level 7: above 80% growth control rate; Level 6: above 70% growth control rate; Level 5: above 60% growth control rate; Level 4: above 50% growth control rate; Level 3: above 20% growth control rate; Level 2: 5%-20% growth control rate; Level 1: below 5% growth control rate
Protocol: as §1

[5] = system: crab grass; experiment: as above; set-up: key: Level 10: completely dead; Level 9: above 95% growth control rate; Level 8: above 90% growth control rate; Level 7: above 80% growth control rate; Level 6: above 70% growth control rate; Level 5: above 60% growth control rate; Level 4: above 50% growth control rate; Level 3: above 20% growth control rate; Level 2: 5%-20% growth control rate; Level 1: below 5% growth control rate
Protocol: as §1

[6] = system: rorippa indica; experiment: as above; set-up: key: Level 10: completely dead; Level 9: above 95% growth control rate; Level 8: above 90% growth control rate; Level 7: above 80% growth control rate; Level 6: above 70% growth control rate; Level 5: above 60% growth control rate; Level 4: above 50% growth control rate; Level 3: above 20% growth control rate; Level 2: 5%-20% growth control rate; Level 1: below 5% growth control rate
Protocol: as §1

[7] = system: Indian mallow; experiment: as above; set-up: key: Level 10: completely dead; Level 9: above 95% growth control rate; Level 8: above 90% growth control rate; Level 7: above 80% growth control rate; Level 6: above 70% growth control rate; Level 5: above 60% growth control rate; Level 4: above 50% growth control rate; Level 3: above 20% growth control rate; Level 2: 5%-20% growth control rate; Level 1: below 5% growth control rate
Protocol: as §1

[8] = system: foxtail; experiment: as above; set-up: key: Level 10: completely dead; Level 9: above 95% growth control rate; Level 8: above 90% growth control rate; Level 7: above 80% growth control rate; Level 6: above 70% growth control rate; Level 5: above 60% growth control rate; Level 4: above 50% growth control rate; Level 3: above 20% growth control rate; Level 2: 5%-20% growth control rate; Level 1: below 5% growth control rate
Protocol: as §1

[9] = system: rice; experiment: post-emergence stage experiment, crop (Table 1)
Protocol: as §1

Row | Compound | effect on crop, Corn (level) [1] | effect on crop, Wheat (level) [2] | weed control effect, Bidens bipinnata (level) [3] | weed control effect, Echinochloa (level) [4] | weed control effect, Crab grass (level) [5] | weed control effect, Rorippa indica (level) [6] | weed control effect, Indian mallow (level) [7] | weed control effect, Green foxtail (level) [8] | effect on crop, Rice (level) [9]
1 | Cc1nn(C)cc1C(=O)Oc1c(C(=O)c2ccc(C(F)(F)F)c(N3CCCC3=O)c2Cl)cnn1C [Compound 016] | 3 (Level 3: above 20% growth control rate) | 3 (Level 3: above 20% growth control rate) | 5 (Level 5: above 60% growth control rate) | 10 | 10 | 10 | 10 | 10 | 4 (Level 4: above 50% growth control rate)
2 | Cn1ncc(C(=O)c2ccc(C(F)(F)F)c(N3CCCCC3=O)c2Cl)c1O [Compound 029] | 7 (Level 7: above 80% growth control rate) | 3 (Level 3: above 20% growth control rate) | 7 (Level 7: above 80% growth control rate) | 5 (Level 5: above 60% growth control rate) | 7 (Level 7: above 80% growth control rate) | 7 (Level 7: above 80% growth control rate) | 7 (Level 7: above 80% growth control rate) | 9 (Level 9: above 95% growth control rate) | 1 (Level 1: below 5% growth control rate)
3 | CC(=O)Oc1c(C(=O)c2ccc(C(F)(F)F)c(N3CCCCC3=O)c2Cl)cnn1C [Compound 030] | 9 (Level 9: above 95% growth control rate) | 4 (Level 4: above 50% growth control rate) | 5 (Level 5: above 60% growth control rate) | 5 (Level 5: above 60% growth control rate) | 8 (Level 8: above 90% growth control rate) | 10 | 6 (Level 6: above 70% growth control rate) | 9 (Level 9: above 95% growth control rate) | 1 (Level 1: below 5% growth control rate)
4 | CCS(=O)(=O)Oc1c(C(=O)c2ccc(C(F)(F)F)c(N3CCCCC3=O)c2Cl)cnn1C [Compound 031] | 9 (Level 9: above 95% growth control rate) | 3 (Level 3: above 20% growth control rate) | 6 (Level 6: above 70% growth control rate) | 5 (Level 5: above 60% growth control rate) | 9 (Level 9: above 95% growth control rate) | 8 (Level 8: above 90% growth control rate) | 7 (Level 7: above 80% growth control rate) | 10 | 1 (Level 1: below 5% growth control rate)
5 | CCOc1c(C(=O)Oc2c(C(=O)c3ccc(C(F)(F)F)c(N4CCCCC4=O)c3Cl)cnn2C)cnn1C [Compound 032] | 4 (Level 4: above 50% growth control rate) | 1 (Level 1: below 5% growth control rate) | 6 (Level 6: above 70% growth control rate) | 9 (Level 9: above 95% growth control rate) | 10 | 10 | 10 | 10 | 8 (Level 8: above 90% growth control rate)
6 | Cn1cc(C(=O)Oc2c(C(=O)c3ccc(C(F)(F)F)c(N4CCCCC4=O)c3Cl)cnn2C)cn1 [Compound 033] | 3 (Level 3: above 20% growth control rate) | 2 (Level 2: 5%-20% growth control rate) | 9 (Level 9: above 95% growth control rate) | 9 (Level 9: above 95% growth control rate) | 9 (Level 9: above 95% growth control rate) | 10 | 10 | 10 | 8 (Level 8: above 90% growth control rate)
7 | Cc1nn(C)cc1C(=O)Oc1c(C(=O)c2ccc(C(F)(F)F)c(N3CCCCC3=O)c2Cl)cnn1C [Compound 034] | 3 (Level 3: above 20% growth control rate) | 1 (Level 1: below 5% growth control rate) | 4 (Level 4: above 50% growth control rate) | 10 | 10 | 10 | 9 (Level 9: above 95% growth control rate) | 5 (Level 5: above 60% growth control rate) | 3 (Level 3: above 20% growth control rate)
8 | CCOC(=O)Oc1c(C(=O)c2ccc(C(F)(F)F)c(N3CCCCC3=O)c2Cl)c(C)nn1C [Compound 036] | 0 | 3 (Level 3: above 20% growth control rate) | 6 (Level 6: above 70% growth control rate) | 7 (Level 7: above 80% growth control rate) | 5 (Level 5: above 60% growth control rate) | 5 (Level 5: above 60% growth control rate) | 5 (Level 5: above 60% growth control rate) | 10 | 8 (Level 8: above 90% growth control rate)
9 | Cc1nn(C)cc1C(=O)Oc1c(C(=O)c2ccc(C(F)(F)F)c(N3CCCCC3=O)c2Cl)c(C)nn1C [Compound 038] | 0 | 1 (Level 1: below 5% growth control rate) | 2 (Level 2: 5%-20% growth control rate) | 9 (Level 9: above 95% growth control rate) | 6 (Level 6: above 70% growth control rate) | 10 | 10 | 10 | 6 (Level 6: above 70% growth control rate)
10 | Cn1ncc(C(=O)c2ccc(C(F)(F)F)c(N3CCCCCC3=O)c2Cl)c1O [Compound 050] | 3 (Level 3: above 20% growth control rate) | 0 | 3 (Level 3: above 20% growth control rate) | 2 (Level 2: 5%-20% growth control rate) | 3 (Level 3: above 20% growth control rate) | 5 (Level 5: above 60% growth control rate) | 9 (Level 9: above 95% growth control rate) | 7 (Level 7: above 80% growth control rate) | 0
11 | CCOC(=O)Oc1c(C(=O)c2ccc(C(F)(F)F)c(N3CCCCCC3=O)c2Cl)c(C)nn1C [Compound 055] | 0 | 0 | 10 | 8 (Level 8: above 90% growth control rate) | 4 (Level 4: above 50% growth control rate) | 2 (Level 2: 5%-20% growth control rate) | 10 | 9 (Level 9: above 95% growth control rate) | 6 (Level 6: above 70% growth control rate)
